Broadly, the LD50 is the dose expected to kill half of the subjects tested.

Read-outs that look alike come from different tables or passages of the source.

The target in data set [1] is T1, glucose-6-phosphate-dehydrogenase (Saccharomyces cerevisiae, UniProt P11412).
T1 construct: purchased Boehringer Mannheim
T1 sequence (P11412 1-505): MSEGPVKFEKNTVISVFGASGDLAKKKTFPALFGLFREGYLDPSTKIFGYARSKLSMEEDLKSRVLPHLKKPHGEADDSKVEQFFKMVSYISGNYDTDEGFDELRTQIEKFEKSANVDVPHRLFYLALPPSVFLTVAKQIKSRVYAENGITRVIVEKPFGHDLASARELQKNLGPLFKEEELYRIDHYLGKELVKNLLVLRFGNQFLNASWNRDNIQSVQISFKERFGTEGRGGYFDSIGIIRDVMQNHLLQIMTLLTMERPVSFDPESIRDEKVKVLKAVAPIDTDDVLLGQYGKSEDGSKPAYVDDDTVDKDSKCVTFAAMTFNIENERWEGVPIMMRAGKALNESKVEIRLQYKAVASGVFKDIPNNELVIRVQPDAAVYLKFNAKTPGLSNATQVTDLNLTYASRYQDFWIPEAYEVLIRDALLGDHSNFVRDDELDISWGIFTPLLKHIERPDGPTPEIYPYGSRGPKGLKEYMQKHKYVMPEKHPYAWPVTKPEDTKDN
Put plainly: Inhibition of the glucose-6-phosphate-dehydrogenase. Type of data set: biochemical. As to conditions: 366 nm. How it is done: Measurement of the inhibition of the glucose-6-phosphate-dehydrogenase.
The equilibrium was observed: [drawing 6]
The rate of formation of NADPH is a measure for the enzyme activity; it may be observed by means of the extinction increase at 340,334 or 366 nm per unit of time.
0.025 ml of glucose-6-phosphate-dehydrogenase (Boehringer Mannheim) were filled up to 10 ml of distilled water (solution I). 100 mgm of nicotinamide-adenine-dinucleotide-phosphate were dissolved in 13 ml of distilled water (solution II). 47.2 mgm of glucose-6-phosphate were dissolved in further 10 ml of distilled water (solution III). Simultaneously a buffer solution (solution IV) was prepared as follows:
0.28 gm of triethanolamine-hydrochloride and 1.461 gm of ethylene diaminotetraacetic acid-disodium salt were dissolved in 1 liter of distilled water and adjusted to a pH of 7.6 with sodium hydroxide solution. The substance under test was dissolved in dimethyl formamide or ethanol (solution V). Tested concentrations: 50; 25; 12.5; 6.25; 3.125; 1.56 and 0.78 μg/ml.
0.1 ml of solution I, 0.1 ml of solution II, 2.67 ml of solution IV and 0.03 ml of solution V were mixed and kept at 25° C. for 5 minutes. Then 0.1 ml of solution III was added, mixed and the alteration of extinction was determined spectrophotometrically at 366 nm for 3 minutes.
0.1 ml of solution I, 0.1 ml of solution II, 2.67 ml of solution IV and 0.03 ml of solution V were mixed and kept at 37° C. for 60 minutes. Then 0.1 ml of solution III was added, mixed and the alteration of extinction was measured spectrophotometrically at 366 nm for 3 minutes.
The inhibitory values were calculated from the average values of three measurements (alteration of extinction per minute) compared with controls, which received the pure solvent as the inhibitory solution. Then the ED50 was calculated according to Reed and Muench from the inhibitory values for the various concentrations.

Data set [2] is described as follows: Compatibility on the skin under occlusion. The data set is classed as in vivo. As to conditions: cream containing 10% of compound A; over 24 hours under occlusion.
The nature of data set [3]: Acute toxicity, LD50 in the mouse. The settings on record: in vivo, ip, death within 14 days. As for the experimental part: The acute toxicity was determined with mice. The LD50, the dose leading to the death of 50% of the animals within 14 days, was calculated.
The subject of data set [4] is HeLa-cell culture. Put plainly: Inhibition of cell cultures (HeLa). Type of data set: cell-based. The settings on record: Homo sapiens, 72 h, 37° C., 3 days, read-out: Minimal inhibitory concentration. As for the experimental part: Measurement of the inhibition of cell cultures
HeLa-cell culture was treated with trypsin and adjusted to a cell number of 150,000 cells/ml of fresh medium. The substance was always dissolved in the same quantity of dimethyl sulfoxide and then further diluted with growth medium. 0.1 ml of the substance-dilutions were added to each well of microtiter plates and then 0.2 ml of cell suspension were added (4 wells per dilution). Several growth controls containing 0.1 ml of growth medium instead of 0.1 ml of substance dilution were put up. After careful mixing, the cultures were incubated at 37° C. for 3 days in a 5% carbon dioxide atmosphere. The reading was effected in comparison with these controls. The results were given as the percentage of the deficiency and degeneration compared to the growth control. […] The data are referred to μg of substance per ml of total medium.

The test system of data set [5] is humans. The settings on record: cited from earlier work.
[6] abbreviates: 25° C., 5 minutes before substrate, read-out: G6PDH-inhibition ED50, Immediate Inhibition (converted).
[7] abbreviates: 37° C., 60 minutes before substrate, read-out: G6PDH-inhibition ED50, Inhibition of Incubation (converted).

`CCc1c(O)ccc(C(=O)C(F)(F)F)c1O` [C, 3-Ethyl-2,4-dihydroxy-trifluoroacetophenone]: the results for the IC50 in data set [1] (setting [6]) and in data set [1] (setting [7]) were 160 µM and 85.4 µM, respectively.
For the molecule `O=C(c1ccc(O)cc1O)C(F)(F)F` [Compound A, 2,4-Dihydroxy-trifluoroacetophenone], the IC50 in data set [1] (setting [6]) is > 243 µM; in data set [1] (setting [7]), 160 µM. In data set [2], the “compatibility on the skin” value was “tolerated without irritation”. This molecule also gave an LD50 at 336 h in data set [3] of 105 mg/kg.
Turning to `CCc1cc(C(=O)C(F)(F)F)c(O)cc1O` [Compound B, 5-Ethyl-2,4-dihydroxy-trifluoroacetophenone], the IC50 in data set [1] (setting [6]) was 147 µM; in data set [1] (setting [7]), 128 µM. This molecule returned an LD50 at 336 h in data set [3] of 88 mg/kg.
`COc1ccc(C(=O)C(F)(F)F)c(OC)c1` [D, 2,4-Dimethoxy-trifluoroacetophenone]: the IC50 in data set [1] (setting [6]) and in data set [1] (setting [7]) was > 214 µM in each case. Further, the minimal effective concentration in data set [4] came out at 25 µg/mL.
Take `CCCCCCc1ccc(O)cc1O` [hexylresorcinol]: the allergies in humans entry in data set [5] is recorded as “in some cases cause allergies in humans”.
